Assay results: patent publication US20100158992A1, “PIPERAZINE-SUBSTITUTED PYRIDAZINONE DERIVATIVES USEFUL AS GLUCAN SYNTHASE INHIBITORS” (Schering Corporation, priority 2007, published 2010)
In brackets after ≈: the same amount, converted by molar mass.

Key:
Format in all cases: cell-based
Candida albicans (C697) = assay: Microbroth susceptibility testing, yeast (MIC); details: strain C697
Method: (§1) Microbroth Susceptibility Testing Methods
(§2) Yeast susceptibility testing procedure followed the NCCLS document M27-A2 (Reference Method for Broth Dilution Antifungal Susceptibility Testing of Yeasts; Approved Standard-Second Edition (ISBN 1-56238-469-4). NCCLS, 940 West Valley Road, Suite 1400 Wayne, Pa. 19087-1898 USA, 2002) with the following modifications:
(§3) 1. The final test volume was 100 μl and not 200 μl as stipulated. 2. For testing Saccharomyces cerevisiae strain PM503 YPD was used in place of RPMI 1640 broth.

Candida glabrata (C624) = assay: Microbroth susceptibility testing, yeast (MIC); details: Nakaseomyces glabratus; strain C624
Method: as §1, §2, §3

[1] = tested on: Saccharomyces cerevisiae (C51); assay: Microbroth susceptibility testing, yeast (MIC); details: read-out: MIC Saccharomyces cerevisiae (C51)
Method: as §1, §2, §3

Candida albicans (C693) = assay: Microbroth susceptibility testing, yeast (MIC); details: strain C693
Method: as §1, §2, §3

[2] = tested on: Aspergillus fumigatus (ND158); assay: Microbroth susceptibility testing, filamentous fungi (MEC); details: strain ND158, minimum effective concentration
Method: Microbroth Susceptibility Testing Methods Filamentous fungi susceptibility testing procedure follows the NCCLS document M38-A (Reference Method for Broth Dilution Antifungal Susceptibility Testing of Filamentous Fungi; Approved Standard (ISBN 1-56238-470-8). NCCLS, 940 West Valley Road, Suite 1400 Wayne, Pa. 19087-1898 USA, 2002) with the following modifications: 1. The final test volume was 100 μl and not 200 μl as stipulated. 2. The end point used to assess the in vitro activity of glucan synthase inhibitors may require microscopic evaluation of cell morphology in the test wells (Kurtz et al., Antimicrobial Agents and Chemotherapy, 38, 1480-1489, 1994; […] et al., Antimicrobial Agents and Chemotherapy, 45, 327-330, 2001).

O=c1c(OC2Cc3ccccc3C2)c(N2CCN(Cc3ccoc3)CC2)cnn1-c1ccccc1 [compound 343]
MIC (Candida albicans (C697)): 1 to 5 µg/mL (≈ 2.13 to 10.7 µM)
MIC (Candida glabrata (C624)): 1 to 5 µg/mL (≈ 2.13 to 10.7 µM)
MIC [1]: < 0.5 µg/mL
MIC (Candida albicans (C693)): 5 to 50 µg/mL (≈ 10.7 to 107 µM)
minimal effective concentration [2]: 0.5 to 1 µg/mL

O=c1c(N2CCOCC2)c(N2CCN(S(=O)(=O)Cc3ccccc3)CC2)cnn1-c1ccccc1 [compound 253]
MIC (Candida albicans (C697)): 1 to 5 µg/mL (≈ 2.02 to 10.1 µM)
MIC (Candida glabrata (C624)): 1 to 5 µg/mL (≈ 2.02 to 10.1 µM)
MIC [1]: 1 to 5 µg/mL (≈ 2.02 to 10.1 µM)
MIC (Candida albicans (C693)): 5 to 50 µg/mL (≈ 10.1 to 101 µM)
minimal effective concentration [2]: 5 to 50 µg/mL

CCOC(=O)C1CCCN(c2c(N3CCN(C(=O)c4ccc5[nH]cnc5c4)CC3)cnn(-c3ccccc3)c2=O)C1 (stereo not shown) [compound 136]
MIC (Candida albicans (C697)): 5 to 50 µg/mL (≈ 9 to 90 µM)
MIC (Candida glabrata (C624)): 5 to 50 µg/mL (≈ 9 to 90 µM)
MIC [1]: 5 to 50 µg/mL (≈ 9 to 90 µM)
MIC (Candida albicans (C693)): 5 to 50 µg/mL (≈ 9 to 90 µM)
minimal effective concentration [2]: 5 to 50 µg/mL

CCOC(=O)C1CCCN(c2c(N3CCN(S(=O)(=O)c4c(F)cccc4F)CC3)cnn(-c3ccccc3)c2=O)C1 (stereo not shown) [compound 236]
MIC (Candida albicans (C697)): 1 to 5 µg/mL (≈ 1.7 to 8.51 µM)
MIC (Candida glabrata (C624)): 0.5 to 1 µg/mL (≈ 0.851 to 1.7 µM)
MIC [1]: 1 to 5 µg/mL (≈ 1.7 to 8.51 µM)
MIC (Candida albicans (C693)): 1 to 5 µg/mL (≈ 1.7 to 8.51 µM)
minimal effective concentration [2]: 1 to 5 µg/mL

Cc1cccc(CN2CCN(c3cnn(-c4ccccc4)c(=O)c3SC(C)C)CC2)c1 [compound 9]
MIC (Candida albicans (C697)): 5 to 50 µg/mL (≈ 11.5 to 115 µM)
MIC (Candida glabrata (C624)): 0.5 to 1 µg/mL (≈ 1.15 to 2.3 µM)
MIC [1]: 0.5 to 1 µg/mL (≈ 1.15 to 2.3 µM)
MIC (Candida albicans (C693)): 5 to 50 µg/mL (≈ 11.5 to 115 µM)
minimal effective concentration [2]: 5 to 50 µg/mL

O=c1c(OCCC2CCCCC2)c(N2CCN(Cc3cccc(O)c3)CC2)cnn1-c1ccccc1 [compound 373]
MIC (Candida albicans (C697)): 1 to 5 µg/mL (≈ 2.05 to 10.2 µM)
MIC (Candida glabrata (C624)): 1 to 5 µg/mL (≈ 2.05 to 10.2 µM)
MIC [1]: 0.5 to 1 µg/mL (≈ 1.02 to 2.05 µM)
MIC (Candida albicans (C693)): 5 to 50 µg/mL (≈ 10.2 to 102 µM)
minimal effective concentration [2]: 5 to 50 µg/mL

O=c1c(OCc2ccccc2)c(N2CCN(Cc3c(Cl)cccc3Cl)CC2)cnn1-c1ccccc1 [compound 339]
MIC (Candida albicans (C697)): 1 to 5 µg/mL (≈ 1.92 to 9.59 µM)
MIC (Candida glabrata (C624)): 1 to 5 µg/mL (≈ 1.92 to 9.59 µM)
MIC [1]: 1 to 5 µg/mL (≈ 1.92 to 9.59 µM)
MIC (Candida albicans (C693)): 5 to 50 µg/mL (≈ 9.59 to 95.9 µM)
minimal effective concentration [2]: 1 to 5 µg/mL

COc1ccc(Sc2c(N3CCN(S(=O)(=O)c4ccccc4)CC3)cnn(-c3ccccc3)c2=O)cc1 [compound 74]
MIC (Candida albicans (C697)): 1 to 5 µg/mL (≈ 1.87 to 9.35 µM)
MIC (Candida glabrata (C624)): 0.5 to 1 µg/mL (≈ 0.935 to 1.87 µM)
MIC [1]: 1 to 5 µg/mL (≈ 1.87 to 9.35 µM)
MIC (Candida albicans (C693)): 5 to 50 µg/mL (≈ 9.35 to 93.5 µM)
minimal effective concentration [2]: 1 to 5 µg/mL

O=c1c(SCc2ccccc2)c(N2CCN(Cc3cc(O)cc(O)c3)CC2)cnn1-c1ccccc1 [compound 1]
MIC (Candida albicans (C697)): 5 to 50 µg/mL (≈ 9.99 to 99.9 µM)
MIC (Candida glabrata (C624)): 1 to 5 µg/mL (≈ 2 to 9.99 µM)
MIC [1]: 5 to 50 µg/mL (≈ 9.99 to 99.9 µM)
MIC (Candida albicans (C693)): 5 to 50 µg/mL (≈ 9.99 to 99.9 µM)
minimal effective concentration [2]: 5 to 50 µg/mL

COc1ccc(Sc2c(N3CCN(S(=O)(=O)c4cccs4)CC3)cnn(-c3ccccc3)c2=O)cc1 [compound 66]
MIC (Candida albicans (C697)): 5 to 50 µg/mL (≈ 9.25 to 92.5 µM)
MIC (Candida glabrata (C624)): 0.5 to 1 µg/mL (≈ 0.925 to 1.85 µM)
MIC [1]: 1 to 5 µg/mL (≈ 1.85 to 9.25 µM)
MIC (Candida albicans (C693)): 5 to 50 µg/mL (≈ 9.25 to 92.5 µM)
minimal effective concentration [2]: 1 to 5 µg/mL

CC(C)OCCCNc1c(N2CCN(S(=O)(=O)Cc3ccccc3)CC2)cnn(-c2ccccc2)c1=O [compound 254]
MIC (Candida albicans (C697)): 5 to 50 µg/mL (≈ 9.51 to 95.1 µM)
MIC (Candida glabrata (C624)): 1 to 5 µg/mL (≈ 1.9 to 9.51 µM)
MIC [1]: 1 to 5 µg/mL (≈ 1.9 to 9.51 µM)
MIC (Candida albicans (C693)): 5 to 50 µg/mL (≈ 9.51 to 95.1 µM)
minimal effective concentration [2]: 5 to 50 µg/mL

Cc1nc[nH]c1CN1CCN(c2cnn(-c3ccccc3)c(=O)c2SCc2ccccc2)CC1 [compound 17]
MIC (Candida albicans (C697)): 5 to 50 µg/mL (≈ 10.6 to 106 µM)
MIC (Candida glabrata (C624)): 5 to 50 µg/mL (≈ 10.6 to 106 µM)
MIC [1]: 5 to 50 µg/mL (≈ 10.6 to 106 µM)
MIC (Candida albicans (C693)): 5 to 50 µg/mL (≈ 10.6 to 106 µM)
minimal effective concentration [2]: 5 to 50 µg/mL

COc1ccc(CCOc2c(N3CCN(Cc4ccccc4O)CC3)cnn(-c3ccccc3)c2=O)cc1 [compound 316]
MIC (Candida albicans (C697)): 5 to 50 µg/mL (≈ 9.75 to 97.5 µM)
MIC (Candida glabrata (C624)): 5 to 50 µg/mL (≈ 9.75 to 97.5 µM)
MIC [1]: 0.5 to 1 µg/mL (≈ 0.975 to 1.95 µM)
MIC (Candida albicans (C693)): 5 to 50 µg/mL (≈ 9.75 to 97.5 µM)
minimal effective concentration [2]: 1 to 5 µg/mL

O=c1c(OC2Cc3ccccc3C2)c(N2CCN(Cc3cccs3)CC2)cnn1-c1ccccc1 [compound 428]
MIC (Candida albicans (C697)): 1 to 5 µg/mL (≈ 2.06 to 10.3 µM)
MIC (Candida glabrata (C624)): 5 to 50 µg/mL (≈ 10.3 to 103 µM)
MIC [1]: 0.5 to 1 µg/mL (≈ 1.03 to 2.06 µM)
MIC (Candida albicans (C693)): 5 to 50 µg/mL (≈ 10.3 to 103 µM)
minimal effective concentration [2]: 1 to 5 µg/mL

CCOC(=O)C1CCCN(c2c(N3CCN(C(=O)c4c[nH]c5ccccc45)CC3)cnn(-c3ccccc3)c2=O)C1 (stereo not shown) [compound 114]
MIC (Candida albicans (C697)): 5 to 50 µg/mL (≈ 9.01 to 90.1 µM)
MIC (Candida glabrata (C624)): 5 to 50 µg/mL (≈ 9.01 to 90.1 µM)
MIC [1]: 5 to 50 µg/mL (≈ 9.01 to 90.1 µM)
MIC (Candida albicans (C693)): 5 to 50 µg/mL (≈ 9.01 to 90.1 µM)
minimal effective concentration [2]: 5 to 50 µg/mL

O=c1c(SCc2ccccc2)c(N2CCN(S(=O)(=O)c3ccccc3[N+](=O)[O-])CC2)cnn1-c1ccccc1 [compound 67]
MIC (Candida albicans (C697)): 5 to 50 µg/mL (≈ 8.87 to 88.7 µM)
MIC (Candida glabrata (C624)): 1 to 5 µg/mL (≈ 1.77 to 8.87 µM)
MIC [1]: 5 to 50 µg/mL (≈ 8.87 to 88.7 µM)
MIC (Candida albicans (C693)): 5 to 50 µg/mL (≈ 8.87 to 88.7 µM)
minimal effective concentration [2]: 5 to 50 µg/mL

CCOC(=O)C1CCCN(c2c(N3CCN(C(=O)CSc4nccc(C)n4)CC3)cnn(-c3ccccc3)c2=O)C1 (stereo not shown) [compound 130]
MIC (Candida albicans (C697)): 5 to 50 µg/mL (≈ 8.65 to 86.5 µM)
MIC (Candida glabrata (C624)): 1 to 5 µg/mL (≈ 1.73 to 8.65 µM)
MIC [1]: 5 to 50 µg/mL (≈ 8.65 to 86.5 µM)
MIC (Candida albicans (C693)): 5 to 50 µg/mL (≈ 8.65 to 86.5 µM)
minimal effective concentration [2]: 5 to 50 µg/mL
